Experimental data: patent US7932261B2, “Macrocycle derivatives useful as inhibitors of β-secretase (BACE)” (Janssen Pharmaceutica NV, priority 2006, dated 2011)
Like-named read-outs stand apart in the source and are kept apart here. Values belong to the molecule of their own block, whether it stands above or below them.

How the values were obtained:
Format in all cases: biochemical
human BACE-1 = human BACE-1 (Homo sapiens, UniProt P56817); experiment: in vitro BACE Assay run by CEREP (Example 15)
Procedure: More specifically the assay, run at 50 μL in a 96 well plate, evaluated the effect of test compound on the activity of the human BACE-1 quantified by measuring the formation of Mca-S-E-V—N-L-NH2 from Mca-S-E-V—N-L-D-A-E-F—R—K(Dnp)-R—R—NH2, using a recombinant enzyme.
The test compound, reference compound or water (control) was added to a buffer containing 0.09 M sodium acetate (pH 4.5) and 0.25 μg BACE-1. Compound interference with the fluorimetric detection method due to autofluorescence was then checked by measurements at the wavelengths defined to evaluate the enzyme activity. […] For control basal measurement, the substrate was omitted from the reaction mixture. […] The standard inhibitory reference compound was OM99-2, which was tested in each experiment at several concentrations to obtain an inhibition curve from which its IC50 value was calculated.

β-secretase (BACE) [1] = biological target: T1, β-secretase (BACE) (Homo sapiens, UniProt P56817); experiment: in vitro BACE FS1 % Inhibition Assay (Example 13); details: FS1 substrate, pH 5; for % Inhibition (Example 13) @ 0.3 μM / inhibition at 0.3 µM: 0.3 μM compound; for % Inhibition (Example 13) @ 1 μM / inhibition at 1 µM: 1 μM compound; for % Inhibition (Example 13) @ 3 μM / inhibition at 3 µM: 3 μM compound; for inhibition at 0.3 µM: read-out: % Inhibition (Example 13) @ 0.3 μM; for inhibition at 1 µM: read-out: % Inhibition (Example 13) @ 1 μM; for inhibition at 3 µM: read-out: % Inhibition (Example 13) @ 3 μM
T1 construct: purchased Panvera
Procedure: (§1) The following assay buffers were prepared and used in this assay: (1) enzyme assay buffer (0.05 M sodium acetate, pH5, 0.1% PEG8000 (w/v)), (2) substrate assay buffer (0.05 M sodium acetate, pH5), and (3) compound vehicle (30% DMSO in 50 mM HEPES, pH 7.4).
(§2) The FS1-substrate stock solution was prepared in DMSO as a 10 mg/mL solution. The FS1-substrate working solution was prepared by diluting the 10 mg/mL stock solution with substrate assay buffer to a final concentration of 300 μg/mL. The α-secretase (BACE) working solution was prepared by diluting a 0.83 mg/mL BACE stock solution with enzyme assay buffer to a final concentration of 4 μg/mL.
Test compounds were dissolved in DMSO to 10 mM.
(§3) The screening procedure for this assay was as follows: 15 μL of BACE working solution was pipetted into each well of a 96-well plate. To each well was then pipetted 2 μL of test compound at the selected concentration. Test compound and BACE were then mixed with a pipettor and incubated for 20 min at room temperature. To each well was then added 10 µL of the FS1 substrate working solution. The plates were then incubated for 1 hour at room temperature.
The procedure for the blank (negative control) was as follows. 15 μL of assay buffer was pipetted into each well to be used as a blank control. To each well was then added 2 μL of vehicle and 10 μL of FS1-substrate working solution. The plates were then incubated for 1 hour at room temperature.
(§4) The procedure for the positive control was as follows: 15 μL of BACE working solution was pipetted into each well to be used as a positive control. To each well was then pipetted 2 μL of vehicle. Vehicle and BACE were then mixed with a pipettor and incubated for 20 min at room temperature. To each well was then added 10 μL of the FS1 substrate working solution. The plates were then incubated for 1 hour at room temperature.
For test compounds, % inhibition was determined at each concentration as follows: […]

β-secretase (BACE) [2] = biological target: T1, β-secretase (BACE); experiment: in vitro BACE Assay, Ki (Example 14)
Procedure: as §1
as §2, with “β-secretase” for “α-secretase”
Test compounds were dissolved in DMSO at 10 mM.
as §3, with “The” for “The screening”, “μL” for “µL”, “solution.” for “solution. The plates were then incubated for 1 hour at room temperature.”
as §4, with “solution.” for “solution. The plates were then incubated for 1 hour at room temperature.”
For test compounds, Ki inhibition was determined as follows: For each compound concentration and positive control, rate of cleavage of substrate (Vi, where i=compound concentration in μM) was determined as Δ Fluorescence/Δ time (min). Cleavage rates (Vi) were plotted as a function of inhibitor concentration in μM [I]. The Ki was then determined by fitting the following equation to the graph of [I] vs. Vi Y=aVmax/(50+24*(1+X/Ki)),

[3] = 0.3 μM compound, recombinant enzyme, pH 4.5, 60 min at 37° C.
[4] = read-out: (Example 14) Ki, FS1 substrate 50 μM, Km 24 μM, pH 5
[5] = recombinant enzyme, pH 4.5, 60 min at 37° C., read-out: IC50

T1 sequence (P56817 46-501): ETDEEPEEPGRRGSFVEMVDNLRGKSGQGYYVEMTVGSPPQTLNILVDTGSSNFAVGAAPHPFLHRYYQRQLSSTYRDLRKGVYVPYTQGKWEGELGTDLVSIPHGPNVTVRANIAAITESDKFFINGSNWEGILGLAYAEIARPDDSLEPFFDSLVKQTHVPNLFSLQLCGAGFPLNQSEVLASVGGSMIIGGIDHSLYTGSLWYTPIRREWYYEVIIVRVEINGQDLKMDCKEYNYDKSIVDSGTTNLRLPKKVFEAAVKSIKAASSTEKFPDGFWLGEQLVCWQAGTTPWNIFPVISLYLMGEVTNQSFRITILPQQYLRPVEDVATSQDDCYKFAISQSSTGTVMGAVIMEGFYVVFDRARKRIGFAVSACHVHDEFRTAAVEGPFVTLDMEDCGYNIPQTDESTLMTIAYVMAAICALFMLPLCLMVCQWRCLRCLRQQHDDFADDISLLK
Chain of human BACE-1 (P56817 46-501): as above

Structure (SMILES): NC1=Nc2cnc3cc2CN1C(C1CCCCC1)CCC(=O)N(C1CCC(C(=O)O)CC1)CCc1cccc(c1)O3 (stereo not shown) [Compound 33]
- % Inhibition 0.3 μM (human BACE-1; [3]): 15%

Structure (SMILES): CC(C)[C@@H]1CCC(=O)N([C@H]2CC[C@@H](C(=O)O)CC2)CCc2cccc(c2)Oc2ccc3c(c2)CN1C(N)=N3 [Compound 23]
- inhibition at 0.3 µM (β-secretase (BACE) [1]): 106%
- inhibition at 1 µM (β-secretase (BACE) [1]): 108%
- inhibition at 3 µM (β-secretase (BACE) [1]): 114%
- Ki (β-secretase (BACE) [2]): 13 nM

Structure (SMILES): NC1=Nc2cnc3cc2CN1[C@H](C1CCCCC1)CCC(=O)N(CC1CC1)CCc1cccc(c1)O3 [Compound 38]
- inhibition at 0.3 µM (human BACE-1; [3]): 97%
- IC50 (human BACE-1; [5]): 67 nM

Structure (SMILES): NC1=Nc2cnc3cc2CN1[C@H](C1CCCCC1)CCC(=O)N(C1CCCCC1)CCc1cccc(c1)O3 [Compound 32]
- IC50 (human BACE-1): 55 nM
- inhibition at 0.3 µM (human BACE-1; [3]): 99%

Structure (SMILES): Nc1nc2ccc3cc2cc1C(C1CCCCC1)CCCC(=O)N(C1CCCCC1)CCc1cccc(c1)O3 (stereo not shown) [Compound 40]
- inhibition at 1 µM (human BACE-1; 1 μM compound, recombinant enzyme, pH 4.5, 60 min at 37° C.): 13%

Structure (SMILES): CC(C)[C@H]1CC(=O)N(C2CCCCC2)CCCc2cccc(c2)Oc2ccc3c(c2)CN1C(N)=N3 [Compound 5]
- % Inhibition (Example 13) @ 0.3 μM (β-secretase (BACE) [1]): 3%
- % Inhibition (Example 13) @ 1 μM (β-secretase (BACE) [1]): −6%
- % Inhibition (Example 13) @ 3 μM (β-secretase (BACE) [1]): 43%

Structure (SMILES): CC(C)[C@@H]1CCC(=O)Nc2ccc3ccc(cc3c2)Oc2ccc3c(c2)CN1C(N)=N3 [Compound 31]
- % Inhibition (Example 13) @ 0.3 μM (β-secretase (BACE) [1]): 14%
- % Inhibition (Example 13) @ 1 μM (β-secretase (BACE) [1]): 16%
- % Inhibition (Example 13) @ 3 μM (β-secretase (BACE) [1]): −15%

Structure (SMILES): CC(C)[C@@H]1CCC(=O)N(C2CCCCC2)CCOc2cccc(c2)Oc2ccc3c(c2)CN1C(N)=N3 [Compound 27]
- inhibition at 0.3 µM (β-secretase (BACE) [1]): 106%
- inhibition at 1 µM (β-secretase (BACE) [1]): 117%
- inhibition at 3 µM (β-secretase (BACE) [1]): 117%
- Ki (β-secretase (BACE) [2]): 11 nM

Structure (SMILES): NC1=Nc2ccc3cc2CN1CCCNC(=O)Cc1cccc(c1)O3 [Compound 12]
- % Inhibition (Example 13) @ 0.3 μM (β-secretase (BACE) [1]): −18%
- % Inhibition (Example 13) @ 1 μM (β-secretase (BACE) [1]): −0.4%
- % Inhibition (Example 13) @ 3 μM (β-secretase (BACE) [1]): 11%

Structure (SMILES): CC(C)[C@@H]1CC(=O)N(C2CCCCC2)CCCc2cccc(c2)Oc2ccc3c(c2)CN1C(N)=N3 [Compound 3]
- % Inhibition (Example 13) @ 0.3 μM (β-secretase (BACE) [1]): 9%
- % Inhibition (Example 13) @ 1 μM (β-secretase (BACE) [1]): 7%
- % Inhibition (Example 13) @ 3 μM (β-secretase (BACE) [1]): 29%

The next lines start with the values.

- % Inhibition (Example 13) @ 0.3 μM (β-secretase (BACE) [1]): −8%
- % Inhibition (Example 13) @ 1 μM (β-secretase (BACE) [1]): 23%
- % Inhibition (Example 13) @ 3 μM (β-secretase (BACE) [1]): 58%
Structure (SMILES): CC(C)C1CCC(=O)N(C2CCC(O)CC2)CCc2cccc(c2)Oc2ccc3c(c2)CN1C(N)=N3 (stereo not shown) [Compound 26]

- % Inhibition (Example 13) @ 0.3 μM (β-secretase (BACE) [1]): 54%
- % Inhibition (Example 13) @ 1 μM (β-secretase (BACE) [1]): 88%
- % Inhibition (Example 13) @ 3 μM (β-secretase (BACE) [1]): 110%
- Ki (β-secretase (BACE) [2]; [4]): 100 nM
Structure (SMILES): NC1=Nc2ccc3cc2CN1[C@H](C1CCOCC1)CCC(=O)NCCc1cccc(c1)O3 [Compound 21]

- % Inhibition (Example 13) @ 0.3 μM (β-secretase (BACE) [1]; 0.3 µM): 39%
- % Inhibition (Example 13) @ 1 μM (β-secretase (BACE) [1]; 1 µM): 36%
- % Inhibition (Example 13) @ 3 μM (β-secretase (BACE) [1]; 3 µM): 37%
Structure (SMILES): NC1=Nc2ccc3cc2CN1CCCNC(=O)CCc1cccc(c1)O3 [Compound 7]

- inhibition at 0.3 µM (β-secretase (BACE) [1]): 27%
- inhibition at 1 µM (β-secretase (BACE) [1]): 43%
- inhibition at 3 µM (β-secretase (BACE) [1]): 77%
- Ki (β-secretase (BACE) [2]): 420 nM
Structure (SMILES): CC(C)[C@@H]1CCC(=O)N([C@H]2CC[C@H](C(=O)O)CC2)CCc2cccc(c2)Oc2ccc3c(c2)CN1C(N)=N3 [Compound 24]

- Ki (β-secretase (BACE) [2]; [4]): 22 nM
Structure (SMILES): CC(C)[C@@H]1CCC(=O)N(C2CCOCC2)CCc2cccc(c2)Oc2ccc3c(c2)CN1C(N)=N3 [Compound 20]

- inhibition at 0.3 µM (human BACE-1; [3]): 86%
- IC50 (human BACE-1; [5]): 210 nM
Structure (SMILES): NC1=Nc2cnc3cc2CN1[C@H](C1CCCCC1)CCC(=O)N([C@H]1CC[C@@H](O)CC1)CCc1cccc(c1)O3 [Compound 34]
